# Earlier results in patent US20190382321A1, “ACID-RESISTANT UREASE INHIBITOR ADDUCT-[…] COMPOSITIONS” (Koch Agronomic Services, LLC, priority 2017, published 2019).
# Details: blend of NBPT-containing urea and one or more acidic fertilizers
compound,measurement,value
"CCCCNP(N)(N)=S [NBPT, N-(n-butyl) thiophosphoric triamide]",time to almost complete decomposition after blending,1-2 weeks
